In ChEMBL document CHEMBL3124912, “Combination of amino acid/dipeptide with nitric oxide donating oleanolic acid derivatives as PepT1 targeting antitumor prodrugs” (J Med Chem, 2014):
Values after ≈ are worked out from the molar mass of the structure shown. Active and inactive are the calls of the source. The calls are words filed in the database; no cut-off is given here.

Assays:
PepT1 [1] = assay: Effective permeability in Sprague-Dawley rat single-pass intestinal perfusion model assessed as PepT1-mediated drug transport at 0.1 mM administered in MES buffer at pH 6 via PVC tubing after 20 to 120 mins by HPLC analysis; assay type: ADME, organism-based; conditions: other: intestinal perfusion via PVC tubing, read-out: Peff
PepT1 [2] = assay: Effective permeability in Sprague-Dawley rat single-pass intestinal perfusion model assessed as PepT1-mediated drug transport at 0.1 mM administered in HEPES buffer at pH 7.4 via PVC tubing after 20 to 120 mins by HPLC analysis; assay type: ADME, organism-based; conditions: other: intestinal perfusion via PVC tubing, read-out: Peff
[3] = Aqueous equilibrium solubility of the compound after 24 hrs by HPLC analysis; assay type: physicochemical; conditions: water (aqueous)
HepG2 = assay: Cytotoxicity against human HepG2 cells after 48 hrs by CCK-8 assay; assay type: functional, cell-based; conditions: HepG2, 48 h
MCF7 = assay: Cytotoxicity against human MCF7 cells after 48 hrs by CCK-8 assay; assay type: functional, cell-based; conditions: MCF7, 48 h
A549 [4] = assay: Cytotoxicity against human A549 cells after 48 hrs by CCK-8 assay; assay type: functional, cell-based; conditions: A549, 48 h
HCT-116 = assay: Cytotoxicity against human HCT116 cells after 48 hrs by CCK-8 assay; assay type: functional, cell-based; conditions: HCT-116, 48 h
[5] = Cytotoxicity against human LO2 cells at 0.02 to 10 uM after 48 hrs by CCK-8 assay; assay type: cell-based; conditions: l02, 48 h
L02 = assay: Induction of human LO2 cell growth at 0.02 to 10 uM after 48 hrs by CCK-8 assay; assay type: functional, cell-based
PepT1 [6] = assay: Effective permeability in Sprague-Dawley rat single-pass intestinal perfusion model assessed as PepT1-mediated drug transport at 0.1 mM administered in MES buffer at pH 6 via PVC tubing after 20 to 120 mins by HPLC analysis in presence of Gly-Sar; assay type: ADME, organism-based; conditions: other: intestinal perfusion via PVC tubing, pH 6, with Gly-Sar (concentration not stated), read-out: Peff
[7] = Chemical stability in HEPES buffer assessed as compound remaining at 37 degC up to 2 hrs by HPLC analysis; assay type: physicochemical; conditions: read-out: Stability
[8] = Chemical stability in MES buffer assessed as compound remaining at 37 degC up to 2 hrs by HPLC analysis; assay type: physicochemical; conditions: read-out: Stability
[9] = Induction of nitric oxide release in PBS at 100 uM at pH 7.4 after 24 hrs by Griess method in presence of rat serum; conditions: pH 7.4, 24 h
[10] = Induction of nitric oxide release in PBS at 100 uM at pH 7.4 after 24 hrs by Griess method; conditions: buffer, pH 7.4, 24 h
[11] = Cytotoxicity against human LO2 cells assessed as cell survival at 50 uM after 48 hrs by CCK-8 assay relative to control; assay type: cell-based, L02; conditions: read-out: Survival
A549 [12] = assay: Ratio of cisplatin IC50 to compound IC50 for human A549 cells; assay type: functional

| Compound | Papp at 100 µM (PepT1 [1]) | Papp at 100 µM (PepT1 [2]) | solubility thermodynamic at 24 h [3] | IC50 (HepG2) | IC50 (MCF7) | IC50 (A549 [4]) | IC50 (HCT-116) | Activity [5] | Activity (L02) | Papp at 100 µM (PepT1 [6]) | remaining at 2 h [7] | remaining at 2 h [8] | Activity [9] | Activity [10] | viability at 48 h, 50 µM [11] | Ratio IC50 (A549 [12]) |
| --- | --- | --- | --- | --- | --- | --- | --- | --- | --- | --- | --- | --- | --- | --- | --- | --- |
| CC1(C)CC[C@]2(C(=O)O)CC[C@]3(C)C(=CC[C@@H]4[C@@]5(C)CC[C@H](O)C(C)(C)[C@@H]5CC[C@]43C)[C@@H]2C1 [OLEANOLIC_ACID] | 31.6 ×10⁻⁶ cm/s | 31.7 ×10⁻⁶ cm/s | 0.012 µg/mL (≈ 0.0263 µM) | 51.4 µM | > 150 µM | 81.4 µM | > 150 µM | Non-toxic | Active | – | – | – | – | – | – | – |
| CC(C)[C@H](N)C(=O)OCCOC(=O)[C@]12CCC(C)(C)C[C@H]1C1=CC[C@@H]3[C@@]4(C)CC[C@H](OC(=O)CO[N+](=O)[O-])C(C)(C)[C@@H]4CC[C@@]3(C)[C@]1(C)CC2.Cl | 33.2 ×10⁻⁶ cm/s | 20.3 ×10⁻⁶ cm/s | 18.6 µg/mL | 10.7 µM | 25.5 µM | 7.5 µM | 24.9 µM | Non-toxic | Active | 25.3 ×10⁻⁶ cm/s | 98.5% | 100% | Active | 6.7% | 60% | 2 |
| CC(C)[C@H](N)C(=O)OCCOC(=O)[C@]12CCC(C)(C)C[C@H]1C1=CC[C@@H]3[C@@]4(C)CC[C@H](O)C(C)(C)[C@@H]4CC[C@@]3(C)[C@]1(C)CC2.Cl | – | 41.5 ×10⁻⁶ cm/s | 25.2 µg/mL | 96.7 µM | > 150 µM | 68.1 µM | > 150 µM | – | – | – | – | – | – | – | – | – |
| CC(C)[C@H](NC(=O)[C@H](C)N)C(=O)OCCOC(=O)[C@]12CCC(C)(C)C[C@H]1C1=CC[C@@H]3[C@@]4(C)CC[C@H](OC(=O)CO[N+](=O)[O-])C(C)(C)[C@@H]4CC[C@@]3(C)[C@]1(C)CC2 | – | – | – | 22.1 µM | 83.2 µM | 9.6 µM | 24.7 µM | – | – | – | – | – | – | – | – | – |
| CC[C@H](C)[C@H](N)C(=O)OCCOC(=O)[C@]12CCC(C)(C)C[C@H]1C1=CC[C@@H]3[C@@]4(C)CC[C@H](OC(=O)CO[N+](=O)[O-])C(C)(C)[C@@H]4CC[C@@]3(C)[C@]1(C)CC2 | – | – | – | 16.3 µM | 74 µM | 17.7 µM | > 150 µM | – | – | – | – | – | – | – | – | – |
| CC(C)[C@H](N)C(=O)N[C@H](C(=O)OCCOC(=O)[C@]12CCC(C)(C)C[C@H]1C1=CC[C@@H]3[C@@]4(C)CC[C@H](OC(=O)CO[N+](=O)[O-])C(C)(C)[C@@H]4CC[C@@]3(C)[C@]1(C)CC2)C(C)C.Cl | 46 ×10⁻⁶ cm/s | 23.4 ×10⁻⁶ cm/s | 22.3 µg/mL | 2.8 µM | 15 µM | 2.4 µM | 15.5 µM | Non-toxic | Active | 16.3 ×10⁻⁶ cm/s | 98.2% | 100% | Active | 9.9% | 60% | 7 |
| C[C@H](N)C(=O)OCCOC(=O)[C@]12CCC(C)(C)C[C@H]1C1=CC[C@@H]3[C@@]4(C)CC[C@H](OC(=O)CO[N+](=O)[O-])C(C)(C)[C@@H]4CC[C@@]3(C)[C@]1(C)CC2 | – | – | – | 23.2 µM | 48 µM | 28.1 µM | 32.8 µM | – | – | – | – | – | – | – | – | – |
| CC(COC(=O)[C@]12CCC(C)(C)C[C@H]1C1=CC[C@@H]3[C@@]4(C)CC[C@H](O)C(C)(C)[C@@H]4CC[C@@]3(C)[C@]1(C)CC2)OC(=O)[C@@H](NC(=O)[C@@H](N)C(C)C)C(C)C (stereo partly drawn) | – | – | – | 73.1 µM | > 150 µM | 64.3 µM | 133 µM | – | – | – | – | – | – | – | – | – |
